Measurements from patent publication US20100173937A1, “USE OF TETRAKIS-QUATERNARY AMMONIUM SALTS AS PAIN MODULATING AGENTS” (University of Kentucky Research Foundation, priority 2008, published 2010).

Tests used:
[1] = test system: formalin-induced flinching; test: rat model of tonic inflammatory pain (the formalin test); type: in vivo; conditions: intraperitoneal, 3.6-3600 μg/kg, 15 minutes prior to formalin, phase 1 and 2, FIGS. 1 and 2
Protocol: A rat model of tonic inflammatory pain (the formalin test) was used in this study (Wheeler-Aceto and Cowan, 1991). Fifty μl of formalin (5%) was injected subcutaneously (SC) into the dorsal surface of the left hind paw. This procedure typically produces a biphasic behavioral response consisting of flinching, lifting and licking. The first phase (0-10 minutes) results from direct stimulation of nociceptors (nociceptive pain) whereas the second phase (20-60 minutes) is thought to involve central sensitization. Rats (3/dose) were pretreated 15 minutes prior to formalin (SC) injection with ZZ-204G (3.6-3600 μg/kg) administered by the IP route. ZZ-204G is as below:
Saline served as control. Incidences of formalin-induced flinching were counted continuously in 5 minute intervals for 60 minutes. Each rat received only one treatment.

[2] = test system: mechanical hyperalgesia in CCI rats; test: rat chronic constriction nerve injury (CCI) model of neuropathic pain, paw pressure test; type: in vivo; conditions: intraperitoneal, 3.6-3600 μg/kg, 15-120 minutes after injection, FIGS. 3 and 4
Protocol: A rat model of neuropathic pain (the chronic constriction nerve injury model; CCI) was used. Unilateral peripheral mononeuropathy was produced on the left hind limb according to the method described by Bennett and Xie (1988). Under pentobarbital anesthesia (40 mg/kg, IP) ligation of the siatic nerve and sham surgery were performed in each rat on the left and right hind paws, respectively. Proximal to the sciatice trifurcation, the nerve (about 7 mm) was freed from adhering tissue and four loose ligatures were tied around the nerve (1 mm apart) using 4.0 chromic catgut, barely constricting the diameter of the nerve. In sham surgery, the right sciatic nerve was exposed using the same procedure, but the nerve was not ligated. The incision was closed in layers with silk thread 3.0. […] No severe motor impairment was observed.
The presence of a decreased threshold to mechanical noxious stimuli (mechanical hyperalgesia) was evaluated by the Randal and Selitto (1957) method (paw pressure test) in CCI rats. The hind paw was placed between a flat surface and a blunt pointer in the Basile Analgesimeter (UGO Basile, Italy) and increasing pressure (32 g/s) was applied to the dorsal side of the paw. Vocalization was used as the end point (vocalization threshold, VT, g). […] Responses were assessed prior to (baseline, taken twice) and at 15, 30, 45, 60 and 120 minutes after injection. […]

Compound: C(#Cc1cc(C#CCCC[n+]2cccc(-c3ccccc3)c2)c(C#CCCC[n+]2cccc(-c3ccccc3)c2)cc1C#CCCC[n+]1cccc(-c2ccccc2)c1)CCC[n+]1cccc(-c2ccccc2)c1.[Br-].[Br-].[Br-].[Br-] [ZZ-204G]
- analgesic effect in the rodent formalin tonic inflammatory pain model (formalin-induced flinching) [1]: analgesic effect
- antihyperalgesic effect in the rodent chronic constriction nerve injury model (vocalization threshold, paw pressure test) [2]: antihyperalgesic effect
